Assay results reported in ChEMBL document CHEMBL3351341, “Discovery of a potent and selective EGFR inhibitor (AZD9291) of both sensitizing and T790M resistance mutations that spares the wild type form of the receptor” (J Med Chem, 2014).
In brackets after ≈: the same amount, converted by molar mass. Values belong to the molecule of their own block, whether it stands above or below them.

Columns and labels:
[1] = Fraction unbound in Han Wistar rat plasma; format: ADME, cell-free
[2] = Thermodynamic solubility of the compound at pH 7.4; format: physicochemical; conditions: buffer, read-out: Therm_solubility
[3] = Unbound fraction in human plasma; format: ADME, cell-free
[4] = Cytotoxicity against human PC9 cells harboring EGFR exon 19 deletion activating mutant assessed as growth inhibition after 72 hrs by SYTOX green nucleic acid staining-based fluorescence assay; format: functional, PC-9; conditions: Homo sapiens, PC-9, 72 h
[5] = Lipophilicity, log D of the compound at pH 7.4; format: physicochemical; conditions: buffer
NCI-H1975 [6] = test: Cytotoxicity against human NCI-H1975 cells harboring EGFR L858R/[…] double mutant assessed as growth inhibition after 72 hrs by SYTOX green nucleic acid staining-based fluorescence assay; format: functional; conditions: Homo sapiens, NCI-H1975, 72 h
[7] = Cytotoxicity against human Calu3 cells assessed as growth inhibition after 72 hrs by SYTOX green nucleic acid staining-based fluorescence assay; format: functional, Calu-3; conditions: Homo sapiens, Calu-3, 72 h
[8] = biological target: T1, Insulin-like growth factor 1 receptor (Homo sapiens, UniProt P08069); test: Inhibition of IGF1R (unknown origin)
[9] = Cmax in mouse at 10 mg/kg, po; format: ADME, organism-based; design: dose 10 mg/kg, route oral; conditions: in vivo
[10] = Intrinsic clearance in human hepatocytes measured per 10^6 cells; format: ADME, cell-based, Hepatocyte; conditions: read-out: CLH
[11] = biological target: Voltage-gated inwardly rectifying potassium channel KCNH2 (Homo sapiens, UniProt Q12809); test: Inhibition of human ERG
Rattus norvegicus = test: Clearance in iv dosed Han Wistar rat; format: ADME, organism-based; conditions: in vivo
[12] = Oral bioavailability in Han Wistar rat at 5 mg/kg; format: ADME, organism-based; conditions: in vivo
Mus musculus [13] = test: Inhibition of EGFR exon 19 deletion activating mutant phosphorylation in human PC9 cells xenografted in SCID mouse at 10 mg/kg, po measured 30 hrs post dose; format: functional; conditions: PC-9, 30 h
Mus musculus [14] = test: Inhibition of EGFR L858R/[…] double mutant phosphorylation in human NCI-H1975 cells xenografted in SCID mouse at 10 mg/kg, po measured 16 hrs post dose; format: functional; conditions: NCI-H1975, 16 h
Insulin receptor [15] = biological target: T2, Insulin receptor (Homo sapiens, UniProt P06213); test: Inhibition of INSR (unknown origin) at 1 uM relative to control
Mus musculus [16] = test: Inhibition of EGFR exon 19 deletion activating mutant phosphorylation in human PC9 cells xenografted in SCID mouse at 10 mg/kg, po measured 6 hrs post dose; format: functional; conditions: PC-9, 6 h
Mus musculus [17] = test: Inhibition of EGFR exon 19 deletion activating mutant phosphorylation in human PC9 cells xenografted in SCID mouse at 10 mg/kg, po measured 1 hr post dose; format: functional; conditions: PC-9, 1 h
A-431 [18] = test: Antitumor activity against human A431 cells xenografted in SCID mouse assessed as tumor growth inhibition at 10 mg/kg/day, po qd for 7 days relative to control; format: functional; conditions: Mus musculus, A-431, 168 h, read-out: TGI
NCI-H1975 [19] = test: Antitumor activity against human NCI-H1975 cells harboring EGFR L858R/[…] double mutant xenografted in SCID mouse assessed as tumor growth inhibition at 10 mg/kg/day, po qd for 7 days relative to control; format: functional; conditions: Mus musculus, NCI-H1975, 168 h, read-out: TGI
Mus musculus [20] = test: Inhibition of EGFR L858R/[…] double mutant phosphorylation in human NCI-H1975 cells xenografted in SCID mouse at 10 mg/kg, po measured 24 hrs post dose; format: functional; conditions: NCI-H1975, 24 h
Mus musculus [21] = test: Inhibition of EGFR L858R/[…] double mutant phosphorylation in human NCI-H1975 cells xenografted in SCID mouse at 10 mg/kg, po measured 30 hrs post dose; format: functional; conditions: NCI-H1975, 30 h
Mus musculus [22] = test: Inhibition of EGFR L858R/[…] double mutant phosphorylation in human NCI-H1975 cells xenografted in SCID mouse at 10 mg/kg, po measured 1 hr post dose; format: functional; conditions: NCI-H1975, 1 h
Mus musculus [23] = test: Inhibition of EGFR exon 19 deletion activating mutant phosphorylation in human PC9 cells xenografted in SCID mouse at 10 mg/kg, po measured 16 hrs post dose; format: functional; conditions: PC-9, 16 h
Insulin receptor [24] = biological target: T2, Insulin receptor; test: Inhibition of INSR (unknown origin)
Mus musculus [25] = test: Inhibition of EGFR exon 19 deletion activating mutant phosphorylation in human PC9 cells xenografted in SCID mouse at 10 mg/kg, po measured 24 hrs post dose; format: functional; conditions: PC-9, 24 h
Mus musculus [26] = test: Inhibition of EGFR L858R/[…] double mutant phosphorylation in human NCI-H1975 cells xenografted in SCID mouse at 10 mg/kg, po measured 6 hrs post dose; format: functional; conditions: NCI-H1975, 6 h
[27] = Antitumor activity against human PC9 cells harboring EGFR exon 19 deletion activating mutant xenografted in SCID mouse assessed as tumor growth inhibition at 10 mg/kg/day, po qd for 7 days relative to control; format: functional, PC-9; conditions: Homo sapiens, PC-9, 168 h, read-out: TGI
[28] = biological target: T1, Insulin-like growth factor 1 receptor; test: Inhibition of IGF1R (unknown origin) at 1 uM relative to control
A-431 [29] = test: Antitumor activity against human A431 cells xenografted in SCID mouse assessed as tumor growth inhibition at […], po qd for 7 days relative to control; format: functional; conditions: Mus musculus, A-431, 168 h, read-out: TGI
A-431 [30] = test: Antitumor activity against human A431 cells xenografted in SCID mouse assessed as tumor growth inhibition at 5 mg/kg/day, po qd for 7 days relative to control; format: functional; conditions: Mus musculus, A-431, 168 h, read-out: TGI
[31] = Unbound fraction in nude mouse plasma; format: ADME, cell-free
NCI-H1975 [32] = test: Antitumor activity against human NCI-H1975 cells harboring EGFR L858R/[…] double mutant xenografted in SCID mouse assessed as tumor growth inhibition at […], po qd for 7 days relative to control; format: functional; conditions: Mus musculus, NCI-H1975, 168 h, read-out: TGI
NCI-H1975 [33] = test: Antitumor activity against human NCI-H1975 cells harboring EGFR L858R/[…] double mutant xenografted in SCID mouse assessed as tumor growth inhibition at 5 mg/kg/day, po qd for 7 days relative to control; format: functional; conditions: Mus musculus, NCI-H1975, 168 h, read-out: TGI
[34] = biological target: Epidermal growth factor receptor (Homo sapiens, UniProt P00533); test: Inhibition of wild type EGFR phosphorylation in human LoVo cells after 2 hrs by fluorescence assay; format: cell-based
[35] = biological target: Epidermal growth factor receptor (Homo sapiens, UniProt P00533, EX19DEL); test: Inhibition of EGFR exon 19 deletion activating mutant phosphorylation in human PC9 cells after 2 hrs by fluorescence assay; format: cell-based, PC-9
[36] = biological target: Epidermal growth factor receptor (Homo sapiens, UniProt P00533, L858R/T790M); test: Inhibition of EGFR L858R/T790M double mutant phosphorylation in human NCI-H1975 cells after 2 hrs by fluorescence assay; format: cell-based
[37] = Intrinsic clearance in mouse hepatocytes measured per 10^6 cells; format: ADME, cell-based, Hepatocyte; conditions: read-out: CLH

T1 sequence (P08069 31-736 limits assumed): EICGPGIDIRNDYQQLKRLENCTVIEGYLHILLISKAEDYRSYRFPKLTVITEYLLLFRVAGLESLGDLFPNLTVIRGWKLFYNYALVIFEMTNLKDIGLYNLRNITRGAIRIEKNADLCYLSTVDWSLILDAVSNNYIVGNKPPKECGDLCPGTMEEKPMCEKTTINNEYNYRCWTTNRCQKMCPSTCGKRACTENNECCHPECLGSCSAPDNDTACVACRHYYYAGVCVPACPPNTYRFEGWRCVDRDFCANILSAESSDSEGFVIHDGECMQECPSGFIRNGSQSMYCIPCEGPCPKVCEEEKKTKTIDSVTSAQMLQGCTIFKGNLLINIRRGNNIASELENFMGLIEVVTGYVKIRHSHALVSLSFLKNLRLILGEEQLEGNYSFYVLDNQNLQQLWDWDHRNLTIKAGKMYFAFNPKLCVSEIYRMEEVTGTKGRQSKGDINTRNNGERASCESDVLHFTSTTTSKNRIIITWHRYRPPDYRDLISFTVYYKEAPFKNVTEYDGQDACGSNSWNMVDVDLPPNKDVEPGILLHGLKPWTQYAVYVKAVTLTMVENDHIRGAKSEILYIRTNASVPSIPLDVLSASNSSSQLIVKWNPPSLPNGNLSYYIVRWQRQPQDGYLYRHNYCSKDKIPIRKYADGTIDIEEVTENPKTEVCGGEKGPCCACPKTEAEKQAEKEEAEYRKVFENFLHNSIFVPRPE
T1 sequence (P08069 741-1367 limits assumed): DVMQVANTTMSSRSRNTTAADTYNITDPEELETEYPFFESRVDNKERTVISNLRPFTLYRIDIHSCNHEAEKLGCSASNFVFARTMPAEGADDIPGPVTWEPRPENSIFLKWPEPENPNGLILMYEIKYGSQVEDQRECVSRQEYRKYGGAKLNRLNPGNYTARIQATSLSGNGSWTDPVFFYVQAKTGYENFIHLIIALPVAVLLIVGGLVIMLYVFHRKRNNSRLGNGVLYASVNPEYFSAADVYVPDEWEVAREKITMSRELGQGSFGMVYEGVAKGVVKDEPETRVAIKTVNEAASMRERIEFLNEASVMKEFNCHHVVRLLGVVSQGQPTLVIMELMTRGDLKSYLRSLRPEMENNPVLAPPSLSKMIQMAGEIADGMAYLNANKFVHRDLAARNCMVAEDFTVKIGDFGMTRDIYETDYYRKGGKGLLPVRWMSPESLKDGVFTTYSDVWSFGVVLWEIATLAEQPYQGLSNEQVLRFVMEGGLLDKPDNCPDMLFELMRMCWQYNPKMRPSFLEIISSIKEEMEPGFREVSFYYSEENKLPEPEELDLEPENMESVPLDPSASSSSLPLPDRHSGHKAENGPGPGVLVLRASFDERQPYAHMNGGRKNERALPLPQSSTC
T2 sequence (P06213 28-758 limits assumed): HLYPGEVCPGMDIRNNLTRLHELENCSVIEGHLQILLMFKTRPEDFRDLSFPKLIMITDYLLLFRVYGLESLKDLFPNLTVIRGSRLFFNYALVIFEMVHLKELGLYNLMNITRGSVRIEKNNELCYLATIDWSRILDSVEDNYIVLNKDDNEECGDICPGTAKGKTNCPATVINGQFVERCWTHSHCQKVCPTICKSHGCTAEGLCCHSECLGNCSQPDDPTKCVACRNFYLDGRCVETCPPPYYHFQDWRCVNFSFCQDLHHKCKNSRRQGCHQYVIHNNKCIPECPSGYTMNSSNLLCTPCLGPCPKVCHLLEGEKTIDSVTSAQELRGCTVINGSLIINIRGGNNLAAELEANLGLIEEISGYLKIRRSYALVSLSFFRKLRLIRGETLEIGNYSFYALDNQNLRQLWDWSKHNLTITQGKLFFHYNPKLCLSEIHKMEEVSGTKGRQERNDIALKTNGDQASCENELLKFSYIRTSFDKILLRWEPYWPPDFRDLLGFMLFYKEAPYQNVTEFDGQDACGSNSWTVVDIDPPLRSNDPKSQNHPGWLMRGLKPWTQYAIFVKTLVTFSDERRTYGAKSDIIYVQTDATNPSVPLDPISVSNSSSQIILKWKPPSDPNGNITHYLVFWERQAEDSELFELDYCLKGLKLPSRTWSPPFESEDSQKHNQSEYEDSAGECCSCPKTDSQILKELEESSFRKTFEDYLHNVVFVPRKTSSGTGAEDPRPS
T2 sequence (P06213 763-1382 limits assumed): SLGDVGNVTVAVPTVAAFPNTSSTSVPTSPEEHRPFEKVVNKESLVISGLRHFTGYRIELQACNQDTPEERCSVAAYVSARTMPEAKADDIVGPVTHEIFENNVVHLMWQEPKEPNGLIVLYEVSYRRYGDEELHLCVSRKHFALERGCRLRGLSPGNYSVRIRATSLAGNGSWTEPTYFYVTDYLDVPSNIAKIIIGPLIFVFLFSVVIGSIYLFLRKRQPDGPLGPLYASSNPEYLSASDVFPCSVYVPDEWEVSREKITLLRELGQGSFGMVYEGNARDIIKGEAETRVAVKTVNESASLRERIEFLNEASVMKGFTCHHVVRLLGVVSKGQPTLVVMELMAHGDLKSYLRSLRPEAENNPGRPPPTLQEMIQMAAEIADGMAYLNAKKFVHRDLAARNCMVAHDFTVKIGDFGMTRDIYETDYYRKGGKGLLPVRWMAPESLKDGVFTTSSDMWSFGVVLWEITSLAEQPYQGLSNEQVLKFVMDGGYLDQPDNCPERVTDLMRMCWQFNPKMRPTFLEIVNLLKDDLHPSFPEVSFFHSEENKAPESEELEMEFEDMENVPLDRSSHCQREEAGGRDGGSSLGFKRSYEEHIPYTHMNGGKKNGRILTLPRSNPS
Voltage-gated inwardly rectifying potassium channel KCNH2, sequence (Q12809 whole entry): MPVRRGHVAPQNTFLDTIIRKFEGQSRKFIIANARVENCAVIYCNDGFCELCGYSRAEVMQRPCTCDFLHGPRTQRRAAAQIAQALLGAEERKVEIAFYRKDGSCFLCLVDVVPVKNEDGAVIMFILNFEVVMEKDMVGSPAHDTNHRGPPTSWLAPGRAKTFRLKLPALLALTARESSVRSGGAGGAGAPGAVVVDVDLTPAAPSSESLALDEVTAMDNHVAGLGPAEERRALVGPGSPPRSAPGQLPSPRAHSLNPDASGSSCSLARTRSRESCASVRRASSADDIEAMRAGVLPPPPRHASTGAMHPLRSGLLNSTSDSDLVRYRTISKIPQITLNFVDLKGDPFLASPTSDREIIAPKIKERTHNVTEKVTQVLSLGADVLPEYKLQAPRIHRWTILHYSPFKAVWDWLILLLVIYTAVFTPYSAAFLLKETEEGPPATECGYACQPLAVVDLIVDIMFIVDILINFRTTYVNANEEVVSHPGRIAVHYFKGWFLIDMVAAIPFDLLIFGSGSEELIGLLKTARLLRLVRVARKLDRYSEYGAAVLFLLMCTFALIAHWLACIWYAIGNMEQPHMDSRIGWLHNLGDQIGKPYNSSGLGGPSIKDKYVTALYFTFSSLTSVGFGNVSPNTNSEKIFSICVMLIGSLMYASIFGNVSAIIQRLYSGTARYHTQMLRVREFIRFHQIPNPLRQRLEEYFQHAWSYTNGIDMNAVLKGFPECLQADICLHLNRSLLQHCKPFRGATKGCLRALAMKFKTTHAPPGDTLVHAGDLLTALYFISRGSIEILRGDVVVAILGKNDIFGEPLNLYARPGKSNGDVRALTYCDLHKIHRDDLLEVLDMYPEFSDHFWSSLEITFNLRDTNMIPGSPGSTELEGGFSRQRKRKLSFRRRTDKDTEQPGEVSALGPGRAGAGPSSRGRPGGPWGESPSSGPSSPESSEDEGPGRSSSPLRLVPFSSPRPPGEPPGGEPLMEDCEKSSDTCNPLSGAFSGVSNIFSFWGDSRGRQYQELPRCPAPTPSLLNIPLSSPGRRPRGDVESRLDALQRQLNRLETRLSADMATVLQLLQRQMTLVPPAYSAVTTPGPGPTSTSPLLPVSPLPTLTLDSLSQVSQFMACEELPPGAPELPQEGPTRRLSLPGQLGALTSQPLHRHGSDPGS
Epidermal growth factor receptor (Homo sapiens, UniProt P00533), sequence (P00533 whole entry): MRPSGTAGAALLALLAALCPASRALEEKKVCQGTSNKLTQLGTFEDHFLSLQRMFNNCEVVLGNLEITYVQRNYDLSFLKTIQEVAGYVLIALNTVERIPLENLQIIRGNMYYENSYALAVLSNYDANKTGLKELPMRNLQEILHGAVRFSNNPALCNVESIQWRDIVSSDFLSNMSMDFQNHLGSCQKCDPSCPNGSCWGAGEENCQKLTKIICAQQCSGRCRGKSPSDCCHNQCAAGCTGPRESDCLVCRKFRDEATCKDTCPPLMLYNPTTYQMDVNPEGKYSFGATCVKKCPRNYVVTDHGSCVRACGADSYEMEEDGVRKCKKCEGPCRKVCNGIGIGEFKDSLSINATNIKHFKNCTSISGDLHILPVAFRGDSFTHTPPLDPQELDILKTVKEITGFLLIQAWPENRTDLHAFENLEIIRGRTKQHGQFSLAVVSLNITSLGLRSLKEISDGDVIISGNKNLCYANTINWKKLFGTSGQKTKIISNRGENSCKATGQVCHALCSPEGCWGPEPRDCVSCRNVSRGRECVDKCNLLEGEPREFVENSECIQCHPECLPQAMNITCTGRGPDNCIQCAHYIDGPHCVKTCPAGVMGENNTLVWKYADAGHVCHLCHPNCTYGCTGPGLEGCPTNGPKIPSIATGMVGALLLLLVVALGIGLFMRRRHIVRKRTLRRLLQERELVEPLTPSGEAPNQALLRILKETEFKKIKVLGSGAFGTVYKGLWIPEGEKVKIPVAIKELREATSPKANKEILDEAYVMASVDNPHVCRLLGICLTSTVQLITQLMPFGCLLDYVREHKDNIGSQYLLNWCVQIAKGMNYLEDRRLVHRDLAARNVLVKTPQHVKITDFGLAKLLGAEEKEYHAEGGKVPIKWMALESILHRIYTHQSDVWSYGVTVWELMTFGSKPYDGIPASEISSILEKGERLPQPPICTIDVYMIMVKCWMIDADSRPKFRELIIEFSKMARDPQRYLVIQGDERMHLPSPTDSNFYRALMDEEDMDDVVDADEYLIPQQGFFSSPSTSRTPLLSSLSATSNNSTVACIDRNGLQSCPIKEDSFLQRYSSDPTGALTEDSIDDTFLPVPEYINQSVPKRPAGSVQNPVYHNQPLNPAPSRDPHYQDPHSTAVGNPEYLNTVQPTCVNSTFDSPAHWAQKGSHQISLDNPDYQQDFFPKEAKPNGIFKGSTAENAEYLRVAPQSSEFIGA

Compound: C=CC(=O)Nc1cc(Nc2ncc(C#N)c(-c3cn(C)c4ccccc34)n2)c(OC)cc1N(C)CCN(C)C
- Cmax [9]: 110 nM
- hepatocyte CLint [10]: 10 µL/min/1e6 cells
- fraction unbound [1]: 0.11
- solubility thermodynamic [2]: 57 µM (≈ 29.9 µg/mL)
- fraction unbound [3]: 0.089
- GI50 [4]: 0.8 nM
- logD [5]: 2.7
- GI50 (NCI-H1975 [6]): 2 nM
- IC50 [11]: 4300 nM
- clearance (Rattus norvegicus): 62 mL/min/kg
- GI50 [7]: 101 nM
- IC50 [8]: 38 nM
- bioavailability [12]: 6%

Compound: C=CC(=O)Nc1cc(Nc2ncc(Cl)c(-c3cnn4ccccc34)n2)c(OC)cc1N(C)CCN(C)C
- inhibition in vivo at 10 mg/kg (Mus musculus [13]): 10%
- inhibition in vivo at 10 mg/kg (Mus musculus [14]): 94%
- inhibition (Insulin receptor [15]): 99%
- inhibition in vivo at 10 mg/kg (Mus musculus [16]): 83%
- inhibition in vivo at 10 mg/kg (Mus musculus [17]): 30%
- inhibition in vivo at 10 mg/kg/day (A-431 [18]): 35%
- inhibition in vivo at 10 mg/kg/day (NCI-H1975 [19]): 130%
- inhibition in vivo at 10 mg/kg (Mus musculus [20]): 93%
- inhibition in vivo at 10 mg/kg (Mus musculus [21]): 80%
- inhibition in vivo at 10 mg/kg (Mus musculus [22]): 89%
- inhibition in vivo at 10 mg/kg (Mus musculus [23]): 60%
- IC50 (Insulin receptor [24]): 9 nM
- inhibition in vivo at 10 mg/kg (Mus musculus [25]): 38%
- inhibition in vivo at 10 mg/kg (Mus musculus [26]): 100%
- inhibition in vivo at 10 mg/kg/day [27]: 243%
- IC50 [8]: 6 nM
- inhibition [28]: 97%

Compound: C=CC(=O)Nc1cc(Nc2ncc(Cl)c(-c3cnn4ccccc34)n2)c(OC)cc1N1CCN(C(=O)CNC)CC1
- logD [5]: 1.8

Compound: C=CC(=O)Nc1cc(Nc2nccc(-c3c[nH]c4ccccc34)n2)c(OC)cc1N1CCN(C)CC1
- IC50 [34]: 1200 nM
- solubility thermodynamic [2]: 828 µM (≈ 400 µg/mL)
- IC50 [35]: 15 nM
- IC50 [36]: 63 nM
- hepatocyte CLint [37]: 53 µL/min/1e6 cells
- IC50 [8]: 813 nM

Compound: C=CC(=O)Nc1cc(Nc2ncc(Cl)c(-c3cn(C)c4ccccc34)n2)c(OC)cc1N(C)CCN(C)C
- Cmax [9]: 310 nM
- hepatocyte CLint [10]: 10 µL/min/1e6 cells
- solubility thermodynamic [2]: 759 µM (≈ 405 µg/mL)
- fraction unbound [3]: 0.023
- GI50 [4]: 3 nM
- logD [5]: 3.3
- GI50 (NCI-H1975 [6]): 4 nM
- IC50 [11]: 7400 nM
- clearance (Rattus norvegicus): 27 mL/min/kg
- GI50 [7]: 192 nM
- IC50 [8]: 40 nM
- bioavailability [12]: 7%

More lines, in order of falling IC50 [8], values ahead:

- fraction unbound [31]: 0.134
- fraction unbound [1]: 0.16
- solubility thermodynamic [2]: 79 µM (≈ 38.4 µg/mL)
- fraction unbound [3]: 0.075
- logD [5]: 2.9
- IC50 [8]: 263 nM
Compound: C=CC(=O)Nc1cc(Nc2nccc(-c3c[nH]c4ccccc34)n2)c(OC)cc1N(C)CCN(C)C
- inhibition in vivo at […] (A-431 [29]): 83%
- inhibition in vivo at 10 mg/kg/day (A-431 [18]): 133%
- inhibition in vivo at 5 mg/kg/day (A-431 [30]): 85%
- inhibition in vivo at 10 mg/kg/day (NCI-H1975 [19]): 123%
- inhibition in vivo at […] (NCI-H1975 [32]): 78%
- GI50 [4]: 21 nM
- inhibition in vivo at 5 mg/kg/day (NCI-H1975 [33]): 125%
- GI50 (NCI-H1975 [6]): 16 nM
- GI50 [7]: 58 nM

- IC50 [8]: 196 nM
Compound: C=CC(=O)Nc1cc(Nc2ncc(C)c(-c3cn(C)c4ccccc34)n2)c(OC)cc1N(C)CCN(C)C

- fraction unbound [1]: 0.075
- solubility thermodynamic [2]: 75 µM (≈ 39 µg/mL)
- fraction unbound [3]: 0.036
- logD [5]: 3.3
- IC50 [8]: 7 nM
Compound: C=CC(=O)Nc1cc(Nc2ncc(Cl)c(-c3c[nH]c4ccccc34)n2)c(OC)cc1N(C)CCN(C)C
- GI50 [4]: 2 nM
- GI50 (NCI-H1975 [6]): 2 nM
- GI50 [7]: 144 nM
